According to the supplement of paper PMC10307832:

How the values were obtained:
Experiment in all cases: relative viability (nuclei count vs DMSO), 5 days (fraction); higher = more cells survive
Selisistat + Phenformin = compound: C1CC(C2=C(C1)C3=C(N2)C=CC(=C3)Cl)C(=O)N [Selisistat] + N=C(N)NC(=N)NCCc1ccccc1 [Phenformin] (partner 250 µM)
How it was run: (§1)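 Lung cancer cell lines in 1536-well plates were dosed by pin tool the day after seeding, either with one drug alone or with a fixed anchor-drug dose plus five library-drug doses (not always all listed) in √10 steps. After 5 days, cells were fixed and their nuclei stained in one step (final 0.05% Triton X-100, 1% formaldehyde, 1 ug/ml Hoechst), then counted on 4× images. Relative viability is the nuclei count in treated wells divided by that in vehicle wells. Values are medians of duplicate plates.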

Serdemetan + Vorinostat = compound: c1ccc2c(CCNc3ccc(Nc4ccncc4)cc3)c[nH]c2c1 [Serdemetan] + O=C(CCCCCCC(=O)Nc1ccccc1)NO [Vorinostat] (partner 1 µM)
How it was run: as §1

Serdemetan + Trametinib = compound: c1ccc2c(CCNc3ccc(Nc4ccncc4)cc3)c[nH]c2c1 [Serdemetan] + CC(=O)Nc1cccc(-n2c(=O)n(C3CC3)c(=O)c3c(Nc4ccc(I)cc4F)n(C)c(=O)c(C)c32)c1 [Trametinib] (partner 0.02 µM)
How it was run: as §1

Serdemetan + Pictilisib = compound: c1ccc2c(CCNc3ccc(Nc4ccncc4)cc3)c[nH]c2c1 [Serdemetan] + CS(=O)(=O)N1CCN(Cc2cc3nc(-c4cccc5[nH]ncc45)nc(N4CCOCC4)c3s2)CC1 [Pictilisib] (partner 1 µM)
How it was run: as §1

Row | Cell Line | relative viability (Selisistat + Phenformin; first compound 0.4 µM) | relative viability (Selisistat + Phenformin; first compound 1.265 µM) | relative viability (Selisistat + Phenformin; first compound 4 µM) | relative viability (Selisistat + Phenformin; first compound 12.65 µM) | relative viability (Selisistat + Phenformin; first compound 40 µM) | relative viability (Serdemetan + Vorinostat; first compound 0.04 µM) | relative viability (Serdemetan + Vorinostat; first compound 0.1265 µM) | relative viability (Serdemetan + Vorinostat; first compound 0.4 µM) | relative viability (Serdemetan + Vorinostat; first compound 1.265 µM) | relative viability (Serdemetan + Vorinostat; first compound 4 µM) | relative viability (Serdemetan + Trametinib; first compound 0.04 µM) | relative viability (Serdemetan + Trametinib; first compound 0.1265 µM) | relative viability (Serdemetan + Trametinib; first compound 0.4 µM) | relative viability (Serdemetan + Trametinib; first compound 1.265 µM) | relative viability (Serdemetan + Trametinib; first compound 4 µM) | relative viability (Serdemetan + Pictilisib; first compound 0.04 µM) | relative viability (Serdemetan + Pictilisib; first compound 0.1265 µM) | relative viability (Serdemetan + Pictilisib; first compound 0.4 µM) | relative viability (Serdemetan + Pictilisib; first compound 1.265 µM) | relative viability (Serdemetan + Pictilisib; first compound 4 µM)
1 | EMC-BAC-2 | 0.514 | 0.502 | 0.567 | 0.517 | 0.493 | 0.463 | 0.471 | 0.495 | 0.379 | 0.399 | 0.833 | 0.889 | 0.886 | 0.754 | 0.719 | 0.564 | 0.556 | 0.507 | 0.508 | 0.502
2 | EPLC-272H | 0.302 | 0.322 |  | 0.288 | 0.296 | 0.396 | 0.654 | 0.532 | 0.304 | 0.218 | 0.32 | 0.281 | 0.28 | 0.292 | 0.25 | 0.365 | 0.348 | 0.293 | 0.27 | 0.33
3 | H3255 | 0.375 | 0.363 | 0.327 | 0.405 | 0.374 | 0.701 | 0.797 |  | 0.487 | 0.73 | 0.618 | 0.561 |  | 0.464 | 0.516 | 0.5 | 0.403 | 0.423 | 0.497 | 0.435
4 | HARA | 0.412 | 0.476 | 0.412 | 0.396 | 0.379 | 0.527 | 0.565 | 0.492 | 0.483 | 0.274 | 0.529 | 0.658 | 0.649 | 0.42 | 0.641 | 0.385 | 0.411 | 0.408 |  | 0.347
5 | HCC-15 | 0.515 | 0.524 |  | 0.44 | 0.501 | 0.848 | 0.83 | 0.704 | 0.681 | 0.456 | 0.402 | 0.397 | 0.361 | 0.334 | 0.317 | 0.753 | 0.821 | 0.708 | 0.567 | 0.638
6 | HCC-44 | 0.159 |  | 0.168 | 0.226 | 0.353 | 1.05 | 1.12 | 1.05 | 1.05 | 0.825 | 1.08 | 1.05 | 0.968 | 0.964 | 0.837 | 0.513 | 0.668 | 0.501 | 0.481 | 0.689
7 | HCC-78 | 0.774 | 0.815 | 0.54 | 0.685 | 0.744 | 0.464 | 0.432 | 0.483 | 0.388 | 0.339 | 0.725 | 0.731 | 0.796 | 0.688 | 0.552 | 0.207 | 0.201 | 0.155 | 0.192 | 0.245
8 | HCC-366 | 0.662 | 0.679 | 0.557 | 0.575 | 0.609 | 0.351 | 0.166 | 0.191 | 0.047 | 0.0752 | 0.279 | 0.114 | 0.0617 | 0.0278 | 0.0741 | 0.204 | 0.151 | 0.0985 | 0.141 | 0.168
